According to patent US20070224668A1, “Process for producing 4-vinylguaiacol by biodecaroxylation of ferulic acid” (priority 2006, published 2007):

Tested on: wild type B. pumilus
Assay: Activity of resting cell in aqueous organic two-phase system (biotransformation of FA to VG)
Conditions: two-phase bioconversion, B. pumilus whole cells
Procedure: The cells were resuspended in 1 ml of 0.1 M phosphate buffer to a concentration (OD600=5) and mixed with an equal volume of organic solvent in flasks. Biotransformation was started at an initial FA concentration of 36 mM. The experiments were performed under the same conditions as in the mono-phase biotransformation process (Example 1).

Row | Compound | Toxicity of solvent to the cells
1 | CCO [Ethanol] | toxic to the cells
2 | CCOC(C)=O [Ethyl acetate] | toxic to the cells
